Measured values from patent US20230147196A1, “MITOCHONDRIAL DYSFUNCTION IMPROVING AGENT” (priority 2020, published 2023).

Columns and labels:
[1] = test system: hippocampus-derived neurons; test: Neuronopathy model: single neuron-astrocyte coculture treated with Aβ peptide (Aβ25-35), Sholl analysis of dendrites and axons; format: cell-based, ICR mouse; settings: for neuropathy of nerve axons (branches and elongation, Tau antibody staining, Sholl analysis) / neuropathy of nerve dendrites (branches and elongation, MAP2 antibody staining, Sholl analysis): Aβ25-35 1 μM, test compound 0.3 μM, exposed for three days, FIGS. 2 and 3; for neurotoxicity caused by Aβ: primary neurons, low concentration of 0.3 μM, summary statement
Method: In a neuronopathy model due to Aβ peptide of which a single neuron-astrocyte coculture sample is treated with Aβ peptide, an improvement effect in neurodegeneration of a MKH derivative was evaluated. Since mitochondrial affinity of the derivative and reconvertibility to MKH are expected affect the MKH delivery by an MKH derivative, a cationic derivative (MKH-DMG) presumed to have a high affinity, an anionic derivative (MKH-SUC) having a high intracellular reconversionability, and an oxidant of MKH (MK-4) used in clinical study were evaluated (Chem. 7).
After culturing (2 weeks) astrocytes isolated from the cerebral cortex of 0- to 1-day-old ICR mouse, regions were divided in dots on a slide glass and cultured. After culturing for one more week, hippocampus-derived neurons of 0- to 1-day-old ICR mouse were seeded and cocultured. From day 1 of seeding neuron, Aβ25-35 (1 μM) and a test compound (0.3 μM) were exposed for three days, and morphological change of neurons was observed. Dendrites (MAP2 antibody) and axons (Tau antibody) of nerves were stained by immunostaining and analyzed. Dendrites and axons were evaluated for changes in branches and elongation of dendrites and axons by Sholl analysis method.

neural cells = test: Mitochondrial dysfunction caused by Complex I inhibitor rotenone in neural cells; format: cell-based; settings: summary statement on the respiratory chain inhibitor tests in neural cells
Method: Effects of an MKH derivative and a PKH derivative to mitochondrial dysfunctions caused by Complex I inhibitor rotenone ([…] Complex II inhibitor (3-nitro propionic acid (3-NP)), Complex III inhibitor (antimycin A), and a depolarizing agent (carbonylcyanide-m-chlorophenylhydrazone, CCCP) in neural cells were evaluated. The effects were evaluated with cell death (viability measurement with cell titer blue), inhibition of ATP production (ATP measurement with cell titer glo), and membrane potential reduction (JC-1 staining: depolarization (green), hyperpolarization (red)).

Menaquinone-4 [MK-4, reference compound]
neuropathy of nerve axons (branches and elongation, Tau antibody staining, Sholl analysis) [1]: No improvement effect | neuropathy of nerve dendrites (branches and elongation, MAP2 antibody staining, Sholl analysis) [1]: No improvement effect

CC(C)=CCC/C(C)=C/CC/C(C)=C/CC/C(C)=C/Cc1c(C)c(OC(=O)CN(C)C)c2ccccc2c1OC(=O)CN(C)C [MKH-DMG]
neuropathy of nerve axons (branches and elongation, Tau antibody staining, Sholl analysis) [1]: significantly improved | neuropathy of nerve dendrites (branches and elongation, MAP2 antibody staining, Sholl analysis) [1]: significantly improved | neurotoxicity caused by Aβ [1]: can improve | mitochondrial function (respiratory chain) damage / mitochondrial dysfunction (membrane potential reduced mitochondria) (neural cells): can improve

CC(C)=CCC/C(C)=C/CC/C(C)=C/CC/C(C)=C/Cc1c(C)c(OC(=O)CCC(=O)O)c2ccccc2c1OC(=O)CCC(=O)O [MKH-SUC]
neuropathy of nerve axons (branches and elongation, Tau antibody staining, Sholl analysis) [1]: significantly improved | neuropathy of nerve dendrites (branches and elongation, MAP2 antibody staining, Sholl analysis) [1]: significantly improved | neurotoxicity caused by Aβ [1]: can improve | mitochondrial function (respiratory chain) damage / mitochondrial dysfunction (membrane potential reduced mitochondria) (neural cells): can improve
